Assay results from patent US4740476A, “Immunoassay for estriol-3-sulfate” (Nihon Medi-Physics Co., Ltd., priority 1984, dated 1988).
Counter-ions that a name gives are not always drawn.

The compounds below were run on anti-estriol-3-sulfate antibody immobilized on Sepharose 4B (assay: Cross-reaction of various steroids in the radioimmunoassay (50% inhibition of labeled estriol-3-sulfate binding)). Conditions: mass ratio of non-labeled estriol-3-sulfate to each steroid required for 50% inhibition of labeled estriol-3-sulfate binding.
Design: species or system guinea pig
Procedure: A plasma specimen (0.1 ml) diluted with tris-HCl buffer (0.1 mol/liter; pH, 8.3) (containing glutamine (0.1 mol/liter)) was added thereto, and the resulting solution was incubated at 4° C. for 16 hours. The mixture was centrifuged at 3500 rpm for 20 minutes. A 0.2 ml aliquot of each supernatant was taken into a counting vial and admixed with Bray's scintillator, and radioactivity was counted in an Aloka LSC-673 liquid scintillation spectrometer.
The cross-reactivity is determined by calculating the mass ratio of non-labeled estriol-3-sulfate to each steriod required to show 50% inhibition of the labeled estiol-3-sulfate binding to the antibody.
With `C[C@]12CC[C@@H]3c4cc(O)c(O)cc4CC[C@H]3[C@@H]1CCC2=O` [2-Hydroxyestrone] the “Cross-reaction (%)” value was < 0.001%.
`C[C@]12CCC(=O)C=C1CC[C@@H]1[C@@H]2CC[C@]2(C)C(=O)CC[C@@H]12` [4-Androsterone-3,17-dione] was tested, and the “Cross-reaction (%)” value was < 0.001%.
`C[C@]12CC[C@@H]3c4ccc(O)c(O)c4CC[C@H]3[C@@H]1CCC2=O` [4-Hydroxyestrone] was tested, and the “Cross-reaction (%)” value was < 0.001%.
In the case of `C[C@]12CC[C@@H]3c4ccc(O)cc4CC[C@H]3[C@@H]1C[C@H](O)[C@@H]2O` [16-Epiestriol], the “Cross-reaction (%)” value is reported as < 0.001%.
With `C[C@]12CC[C@@H](O)C[C@@H]1CC[C@@H]1[C@@H]2CC[C@]2(C)C(=O)CC[C@@H]12` [Androsterone] the “Cross-reaction (%)” value was < 0.001%.
For `CC(C)CCC[C@@H](C)[C@H]1CC[C@H]2[C@@H]3CC=C4C[C@@H](OS(=O)(=O)O)CC[C@]4(C)[C@H]3CC[C@]12C` [Cholesterol sulfate], the “Cross-reaction (%)” value was 0.081%.
In the case of `CC(C)CCC[C@@H](C)[C@H]1CC[C@H]2[C@@H]3CC=C4C[C@@H](O)CC[C@]4(C)[C@H]3CC[C@]12C` [Cholesterol], the “Cross-reaction (%)” value is reported as < 0.001%.
In the case of `C[C@]12C[C@H](O)[C@H]3[C@@H](CCC4=CC(=O)CC[C@@]43C)[C@@H]1CC[C@@H]2C(=O)CO` [Corticosterone], the “Cross-reaction (%)” value is reported as < 0.001%.
For `C[C@]12CC[C@H](OS(=O)(=O)O)CC1=CC[C@@H]1[C@@H]2CC[C@]2(C)C(=O)CC[C@@H]12` [Dehydroepiandrosterone sulfate], the “Cross-reaction (%)” value was 0.077%.
`C[C@]12CC[C@H](O)CC1=CC[C@@H]1[C@@H]2CC[C@]2(C)C(=O)CC[C@@H]12` [Dehydroepiandrosterone] was tested, and the “Cross-reaction (%)” value was < 0.001%.
For `C[C@]12CC[C@@H]3c4ccc(OS(=O)(=O)O)cc4CC[C@H]3[C@@H]1CC[C@@H]2O` [Estradiol-3-sulfate], the “Cross-reaction (%)” value was 0.144%.
`C[C@]12CC[C@@H]3c4ccc(O)cc4CC[C@H]3[C@@H]1CC[C@@H]2O[C@@H]1O[C@H](C(=O)O)[C@@H](O)[C@H](O)[C@H]1O` [Estradiol-17-glucuronide] was tested, and the “Cross-reaction (%)” value was < 0.001%.
With `C[C@]12CC[C@@H]3c4ccc(O)cc4CC[C@H]3[C@@H]1CC[C@@H]2O` [Estradiol] the “Cross-reaction (%)” value was < 0.001%.
`C[C@]12CC[C@@H]3c4ccc(O[C@@H]5O[C@H](C(=O)O)[C@@H](O)[C@H](O)[C@H]5O)cc4CC[C@H]3[C@@H]1C[C@@H](O)[C@@H]2O` [Estriol-3-glucuronide] was tested, and the “Cross-reaction (%)” value was 0.050%.
`C[C@]12CC[C@@H]3c4ccc(OS(=O)(=O)O)cc4CC[C@H]3[C@@H]1C[C@@H](O)[C@@H]2O` [Estriol-3-sulfate] was tested, and the “Cross-reaction (%)” value was 100%.
For `C[C@]12CC[C@@H]3c4ccc(O)cc4CC[C@H]3[C@@H]1C[C@@H](O[C@@H]1O[C@H](C(=O)O)[C@@H](O)[C@H](O)[C@H]1O)[C@@H]2O` [Estriol-16-glucuronide], the “Cross-reaction (%)” value was < 0.001%.
In the case of `C[C@]12CC[C@@H]3c4ccc(O)cc4CC[C@H]3[C@@H]1C[C@@H](O)[C@@H]2O[C@@H]1O[C@H](C(=O)O)[C@@H](O)[C@H](O)[C@H]1O` [Estriol-17-glucuronide], the “Cross-reaction (%)” value is reported as < 0.001%.
In the case of `C[C@]12CC[C@@H]3c4ccc(O)cc4CC[C@H]3[C@@H]1C[C@@H](O)[C@@H]2O` [Estriol], the “Cross-reaction (%)” value is reported as 0.033%.
With `C[C@]12CC[C@@H]3c4ccc(O[C@@H]5O[C@H](C(=O)O)[C@@H](O)[C@H](O)[C@H]5O)cc4CC[C@H]3[C@@H]1CCC2=O` [Estrone glucuronide] the “Cross-reaction (%)” value was < 0.001%.
In the case of `COc1ccc2c(c1)CC[C@@H]1[C@@H]2CC[C@]2(C)C(=O)CC[C@@H]12` [Estrone methyl ether], the “Cross-reaction (%)” value is reported as < 0.001%.
In the case of `C[C@]12CC[C@@H]3c4ccc(OS(=O)(=O)O)cc4CC[C@H]3[C@@H]1CCC2=O` [Estrone sulfate], the “Cross-reaction (%)” value is reported as 0.060%.
`C[C@]12CC[C@@H]3c4ccc(O)cc4CC[C@H]3[C@@H]1CCC2=O` [Estrone] was tested, and the “Cross-reaction (%)” value was < 0.001%.
With `CC(=O)[C@H]1CC[C@H]2[C@@H]3CCC4=CC(=O)CC[C@]4(C)[C@H]3CC[C@]12C` [Progesterone] the “Cross-reaction (%)” value was < 0.001%.
For `C[C@]12CC[C@H]3[C@@H](CCC4=CC(=O)CC[C@@]43C)[C@@H]1CC[C@@H]2OS(=O)(=O)O` [Testosterone sulfate], the “Cross-reaction (%)” value was 0.004%.
In the case of `C[C@]12CC[C@H]3[C@@H](CCC4=CC(=O)CC[C@@]43C)[C@@H]1CC[C@@H]2O` [Testosterone], the “Cross-reaction (%)” value is reported as < 0.001%.

Same assay, conditions: mass ratio of non-labeled estriol-3-sulfate to each steroid required for 50% inhibition of labeled estriol-3-sulfate binding; listed as dehydroepiandrosterone sulfate
`C[C@]12CC[C@H](OS(=O)(=O)O)CC1=CC[C@@H]1[C@@H]2CC[C@]2(C)C(=O)CC[C@@H]12` [Dehydroepiandrosterone sulfate] was tested, and the “Cross-reaction (%)” value was 0.77%.

These compounds were tested against anti-estriol-3-sulfate antibody immobilized on Sepharose 4B (assay: Scatchard plot of [3H]-estriol-3-sulfate binding to immobilized antibody). Conditions: immobilized antibody 1:500, incubation at 4° C. for 16 hours.
Design: species or system guinea pig
Procedure: A plasma specimen (0.1 ml) diluted with tris-HCl buffer (0.1 mol/liter; pH, 8.3) (containing glutamine (0.1 mol/liter)) was added thereto, and the resulting solution was incubated at 4° C. for 16 hours. The mixture was centrifuged at 3500 rpm for 20 minutes. A 0.2 ml aliquot of each supernatant was taken into a counting vial and admixed with Bray's scintillator, and radioactivity was counted in an Aloka LSC-673 liquid scintillation spectrometer. […] FIG. 1 of the accompanying drawing showing the Scatchard plot graph of anti-estriol-3-sulfate antibody immobilized on Sepharose 4B).
With `C[C@]12CC[C@@H]3c4ccc(OS(=O)(=O)O)cc4CC[C@H]3[C@@H]1C[C@@H](O)[C@@H]2O` [Estriol-3-sulfate] the “association constant (Ka)” value was 4.3e+09 L/mol.
